According to patent US20250339415A1, “DISULFIDE COMPOUNDS AS MEDICAMENTS” (CYTACOAT AB, priority 2021, published 2025):
Where “and” joins values, the source holds several entries; their conditions need not be identical. Equal entries are not always repeated. Structures can show the parent of a compound that is named as a salt.

Experiments:
[1] = test system: 5637 cells; experiment: Cancer cell viability assay (XTT); format: cell-based, human; conditions: for % cell survival / Absorbance unit / Absorbance unit - Blank: triplicate, (hydrochloride)
Method: (§1) Two types of human uroepithelial cancer cells (124 and 5637) were tested in an XTT assay. “T24” cells were cultured in McCoy's 5A (Modified) Medium, Catalog number: 16600082 from GIBCO. “5637” cells were cultured in RPMI 1640 Medium, Catalog number: 21875034 from GIBCO. Different concentrations of 2-(Pyridyldithio)ethylamine (hydrochloride) (PDEA) (CAS: 106139-15-5): 12.5, 25, 50, 100 and 200 μM, were prepared in each cell culture medium.
(§2) 1. 5×10^5 cells were seeded into 24-well plate overnight at 37-degree C. in 5% CO2.
(§3) 2. 80% confluent cells were treated with 200 μl medium with different concentrations of PDEA and the control.
(§4) 3. After 24 hrs, medium (MacCoy's 5a for T24, RPMI for 5637) was removed and cells were washed 2 times with 200 μl of pre-warmed PBS/well. 200 μl (96-well) of pre-prepared fresh medium containing XTT-menadione to wells were added (mentioned below).
(§5) 4. Cells were incubated for at least 3 h at 37-degree C. Medium with XTT only in empty wells were served as background control.
(§6) 5. The supernatant was transferred to 96-well plate and the concentration were measured at 450 nm and 690 nm. 690 nm was used as a background measurement and subtracted from 450 nm value.
(§7) Menadione (172.18 g/mol, light sensitive): dissolve 1 mg/ml in absolute ethanol. XTT: 1 mg/ml dissolve in PBS, 0.2 μm filtrate sterilised, store at −20° C. (Sigma X4626). Pre-warm to 37° C. before use.
(§8) Prepare solution: Add 2.15 μl of menadione/ml (final concentration 12.5 μM 0 2.15 mg/l) to 1 ml of XTT directly before use. Prepare XTT-menadione solution equal to 20% of the culture medium volume to be tested.
(§9) Results are shown below and represented graphically in FIGS. 1 and 2. “Blank” is cell culture medium only.

[2] = test system: T-24 cells; experiment: Cancer cell viability assay (XTT); format: cell-based, human; conditions: for % cell survival / Absorbance unit / Absorbance unit - Blank: triplicate, (hydrochloride)
Method: as §1, §2, §3, §4, §5, §6, §7, §8, §9

[3] = test system: Candida albicans; experiment: Minimum inhibitory concentration (MIC), visible growth, YPD broth; format: cell-based
Method: • 1. Using a sterile inoculating loop, transfer bacteria/Candida albicans from frozen stock culture and streak them on a fresh LA plate. • 2. Incubate the plate at 37° C. overnight (o/n) (18-24 h).
• 1. Prepare bacterial culture by adding 20 ml Mueller Hinton broth (*) to a 250-ml Erlenmeyer flask with sidearm. • 2. Using a sterile inoculating loop, pick approximately 10 colonies from the o/n bacterial culture and transfer bacteria to the flask. • 3. Incubate the E-flask with bacteria on a rotating shaker at 37° C. until OD590=0.40. This OD should equal an approximate bacterial count of 1×10^8 cfu/ml (**) • This is measured using a colorimeter (or spectrophotometer). Set reference and press R (=reference) first, then measure the bacterial culture by pressing T (=test). • 4. At OD590 0.40, serially dilute the bacterial suspension 1:10 000 in Mueller Hinton broth to obtain a bacterial target concentration of 1×10^4 cfu/ml. Determine the initial inoculation by serially diluting 0.1 ml in 0.9 ml blanks of sterile PBS and plating 0.1 ml aliquots to LA plates, preferably. • 5. Different concentrations of the tested compound are prepared in 0.6-0.8 ml of the final dilution of bacterial suspension and placed in 2-ml test tubes. • 6. Incubate test tubes in an orbital shaker incubator at 37° C. for 24 h.
• 7. Analyze visible growth, i.e. “Foggy” or “Clear”. MIC is being defined as the interval between the highest “Foggy” and the lowest “Clear” concentration of the compound.
(*) When testing Candida albicans, Yeast extract Peptone Dextrose (YPD) broth is being used.
(**) For Candida albicans it is equal to 1×10^7
Different concentrations of PDEA were also prepared in Yeast extract Peptone Dextrose (YPD) broth. Candida albicans were inoculated to a concentration of 20 000 CFU/ml and incubated at 37° C. for 24 hours. Readouts were “Clear” and “Foggy”.
Different concentrations of the quaternary ammonium PDEA (Example 2) were also prepared in Yeast extract Peptone Dextrose (YPD) broth. Candida albicans were inoculated to a concentration of 20 000 CFU/ml and incubated at 37° C. for 24 hours. Readouts were “Clear” and “Foggy”.
Different concentrations of the Para position-PDEA” is (S)-4-pyridylthio cysteamine were also prepared in Yeast extract Peptone Dextrose (YPD) broth. Candida albicans were inoculated to a concentration of 20 000 CFU/ml and incubated at 37° C. for 24 hours. Readouts were “Clear” and “Foggy”.
Different concentrations of “Carboxylic acid PDEA” is 3-(2-Pyridyldithio)propanoic acid (CAS: 68617-64-1) were also prepared in Yeast extract Peptone Dextrose (YPD) broth. Candida albicans were inoculated to a concentration of 20 000 CFU/ml and incubated at 37° C. for 24 hours. Readouts were “Clear” and “Foggy”.

[4] = test system: E. coli; experiment: Combination therapy: Fradiomycin with PDEA, visible growth; format: cell-based; conditions: Fradiomycin 0 μg/ml
Method: (§10) Different concentrations of Fradiomycin in Mueller Hinton were prepared in 3 different concentrations of PDEA. E. coli and S. aureus were inoculated (10^5) and were incubated overnight. Readouts were “Clear” and “Foggy”.

[5] = test system: S. aureus; experiment: as above; format: cell-based; conditions: Fradiomycin 0 μg/ml
Method: as §10

For `NCCSSc1ccccn1` [PDEA, 2-(Pyridyldithio)ethylamine (hydrochloride)], the “% cell survival” value ([1]; 12.5 μM) was 104.6875% and 96.65% and 91.2594%, the Absorbance unit ([1]; 12.5 μM) was 1.229 and 1.224 and 1.119 and the “Absorbance unit - Blank” value ([1]; 12.5 μM) was 1.072 and 1.069 and 0.971. The “% cell survival” value ([1]; 25 μM) was 109.082% and 103.9783% and 102.2556%, the Absorbance unit ([1]; 25 μM) was 1.274 and 1.305 and 1.236 and the “Absorbance unit - Blank” value ([1]; 25 μM) was 1.117 and 1.15 and 1.088. The “% cell survival” value ([1]; 50 μM) was 115.0391% and 99.55% and 123.5902%, the Absorbance unit ([1]; 50 μM) was 1.335 and 1.256 and 1.463 and the “Absorbance unit - Blank” value ([1]; 50 μM) was 1.178 and 1.101 and 1.315. For the same molecule, the “% cell survival” value ([1]; 100 μM) was 83.4% and 52.8% and 57.42%, the Absorbance unit ([1]; 100 μM) was 1.011 and 0.739 and 0.759 and the “Absorbance unit - Blank” value ([1]; 100 μM) was 0.854 and 0.584 and 0.611. The “% cell survival” value ([1]; 200 μM) was 3.613% and 3.436% and 4.793%, the Absorbance unit ([1]; 200 μM) was 0.194 and 0.193 and 0.199 and the “Absorbance unit - Blank” value ([1]; 200 μM) was 0.037 and 0.038 and 0.051. For the same molecule, the cytotoxicity at 100 µM ([1]; Homo sapiens, 100 μM PDEA, 24 hrs, read-out: cell viability reduced by) was 17 to 47%, the cytotoxicity at 200 µM ([1]; Homo sapiens, 200 μM PDEA, 24 hrs, read-out: cell viability reduced by) was 95 to 100% and the “% cell survival” value ([2]; 12.5 μM) was 99.37% and 98.6% and 99.88%. The Absorbance unit ([2]; 12.5 μM) was 1.63 and 1.659 and 1.884, the “Absorbance unit - Blank” value ([2]; 12.5 μM) was 1.429 and 1.483 and 1.686 and the “% cell survival” value ([2]; 25 μM) was 100.1391% and 95.0133% and 97.81%. For the same molecule, the Absorbance unit ([2]; 25 μM) was 1.641 and 1.605 and 1.849, the “Absorbance unit - Blank” value ([2]; 25 μM) was 1.44 and 1.429 and 1.651 and the “% cell survival” value ([2]; 50 μM) was 76.43% and 73.67% and 89.6327%. For the same molecule, the Absorbance unit ([2]; 50 μM) was 1.3 and 1.284 and 1.711, the “Absorbance unit - Blank” value ([2]; 50 μM) was 1.099 and 1.108 and 1.513 and the “% cell survival” value ([2]; 100 μM) was 65.3% and 80.52% and 62.09%. For the same molecule, the Absorbance unit ([2]; 100 μM) was 1.14 and 1.387 and 1.246, the “Absorbance unit - Blank” value ([2]; 100 μM) was 0.939 and 1.211 and 1.048 and the cytotoxicity at 50 µM ([2]; Homo sapiens, T-24, 50 μM PDEA, 24 hrs, read-out: cell viability reduced by) was 10 to 26%. For the same molecule, the cytotoxicity at 200 µM ([2]; Homo sapiens, T-24, 200 μM PDEA, 24 hrs, read-out: cell viability reduced by) was 83 to 100%, the visible growth readout ([3]; 0.01 mM) was “Foggy” and the visible growth readout ([3]; 0.025 mM) was “Foggy”. The visible growth readout ([3]; 0.05 mM) was “Foggy”, the visible growth readout ([3]; 0.1 mM) was “Foggy” and the visible growth readout ([3]; 0.2 mM) was “Foggy”. The visible growth readout ([3]; 0.4 mM) was “Foggy”, the visible growth readout ([3]; 0.8 mM) was “Clear” and the visible growth readout ([3]; 1.6 mM) was “Clear”. The MIC ([3]; Candida albicans, 24 h) was 400 to 800 µM, the visible growth readout ([4]; PDEA 0.0125 mM) was “Foggy” and the visible growth readout ([4]; PDEA 0.025 mM) was “Foggy”. The visible growth readout ([4]; PDEA 0.05 mM) was “Clear”, the visible growth readout ([5]; PDEA 0.0125 mM) was “Foggy” and the visible growth readout ([5]; PDEA 0.025 mM) was “Foggy”. The visible growth readout ([5]; PDEA 0.05 mM) was “Foggy”.
